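Dose response: 5 concentrations. Exposure: 48 h. Format: 96-well plates. Endpoint: linear interpolation; highest concentration if not reached. At the GI50, growth is halved. TGI: concentration producing complete growth inhibition.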
Experiments:
Test in all cases: growth of human tumour cells (NCI), 48 h
786-0 renal = system: 786-0 renal
A549 NSCLC = system: A549 NSCLC
CAKI-1 renal = system: CAKI-1 renal
HCT-15 colon = system: HCT-15 colon
HOP-62 NSCLC = system: HOP-62 NSCLC
PC-3 prostate = system: PC-3 prostate
SK-MEL-2 melanoma = system: SK-MEL-2 melanoma
SR leukemia = system: SR leukemia
DLD-1 colon = system: DLD-1 colon
HOP-18 NSCLC = system: HOP-18 NSCLC
KM20L2 colon = system: KM20L2 colon
XF 498 CNS = system: XF 498 CNS

Structure (SMILES) | TGI (786-0 renal) [µM] | TGI (A549 NSCLC) [µM] | TGI (CAKI-1 renal) [µM] | TGI (HCT-15 colon) [µM] | TGI (HOP-62 NSCLC) [µM] | TGI (PC-3 prostate) [µM] | TGI (SK-MEL-2 melanoma) [µM] | TGI (SR leukemia) [µM] | TGI (DLD-1 colon) [µM] | TGI (HOP-18 NSCLC) [µM] | TGI (KM20L2 colon) [µM] | TGI (XF 498 CNS) [µM] | GI50 (A549 NSCLC) [µM] | GI50 (CAKI-1 renal) [µM] | GI50 (HCT-15 colon) [µM] | GI50 (HOP-62 NSCLC) [µM] | GI50 (PC-3 prostate) [µM] | GI50 (SK-MEL-2 melanoma) [µM] | GI50 (SR leukemia) [µM] | GI50 (KM20L2 colon) [µM]
S=c1[nH]n2c(COc3ccc(Cl)cc3)nnc2s1 | > 100 | > 100 | > 100 | > 100 | > 100 | > 100 | > 100 | > 100 |  |  |  |  |  |  |  |  |  |  |  | 
CSCC(CO)NC(=O)/C=C/c1c(C)[nH]c(=O)[nH]c1=O (configuration not stated) |  | > 875 | > 87.5 | > 875 | > 875 |  | > 875 |  | > 875 | > 875 | > 875 | 815 |  |  |  |  |  |  |  | 
c1ccc2c(c1)SCCc1cn[nH]c1-2 |  | > 100 | > 100 | > 100 | > 100 |  | > 100 |  | > 100 | > 100 | > 100 | > 100 |  |  |  |  |  |  |  | 
O=C(Sc1n[nH]c(=O)[nH]c1=O)c1cccc2nc3ccccc3nc12 | > 100 | 50.4 | > 100 | > 100 |  |  | > 100 | > 100 |  |  |  |  |  |  |  |  |  |  |  | 
Nc1ccc(Cn2ccc3c4c(N)nc(N)nc4ccc32)cc1 | 16.4 | 15.2 | 18 | 17.6 | 5.09 | 16.8 | 5.15 | 4.74 | 17 | 21.9 | 10.8 | 2.9 |  |  |  |  |  |  |  | 
CC(=O)OC1CC(OC2C(O)CC(OC3C(O)CC(OC4CCC5(C)C(CCC6C5CCC5(C)C(C7=CC(=O)OC7)CCC65O)C4)OC3C)OC2C)OC(C)C1OC1OC(CO)C(O)C(O)C1O (configuration not stated) | 0.0598 | 0.0221 | < 0.0321 | 0.0679 | < 0.0156 | 0.159 | 0.245 |  |  |  |  |  |  |  |  |  |  |  |  | 
O=S(O)CCCSSSCCCS(=O)O |  |  |  |  | > 100 |  | > 100 | > 100 | > 100 |  | > 100 | > 100 |  |  |  |  |  |  |  | 
Cc1cccc2c1Sc1ccccc1C2NC(=O)CN(C)C (configuration not stated) |  | > 100 |  | > 100 | > 100 |  |  | > 100 |  |  | 37.4 | > 100 |  |  |  |  |  |  |  | 
COCCNCc1ccc(-c2cc3nccc(Oc4ccc(NC(=O)C5(C(=O)Nc6ccc(F)cc6)CC5)cc4F)c3s2)nc1 |  | 4.15 | 4.83 | 4.57 | 3.43 | 5 | 3.6 | 6.04 |  |  |  |  | 1.71 | 2.08 | 1.68 | 1.57 | 1.81 | 1.82 | 1.96 | 
CN(c1ccccc1)c1nc(=[N+]2CCCC2)ss1 | > 100 | > 100 | > 100 | > 100 |  |  | > 100 | > 100 |  | > 100 | > 100 |  |  |  |  |  |  |  |  | 
CO/C=C1\OC(=O)C=C1OC |  | > 100 | > 100 | > 100 |  |  | > 100 |  | > 100 | > 100 |  | > 100 |  |  |  |  |  |  |  | 
NNC(=O)c1cc([N+](=O)[O-])ccc1NC(=O)C12CC3CC(CC(C3)C1)C2 | > 100 | 51.7 | > 100 | 3.42 | > 100 | > 100 |  | 55.6 |  |  |  |  |  |  |  |  |  |  |  | 
Cc1ccc(Nc2nc(=O)c3c([nH]c4ccccc43)s2)cc1 | 27.6 | 25.1 | 24.5 | 23.1 | 21.8 | 28.3 | 31.3 | > 100 |  |  |  |  |  |  |  |  |  |  |  | 
CN(C)c1cccc(OC(=O)NCCCl)c1 |  | > 100 | > 100 | > 100 | > 100 |  | > 100 |  | > 100 | > 100 | > 100 | > 100 |  |  |  |  |  |  |  | > 100
O=C1C(c2c(O)[nH]c3ccc(Cl)cc23)=Nc2ccccc21 | 3.9 | 20.7 | > 71.6 | > 100 | 38 | > 28 | > 26.3 | > 100 |  |  |  |  |  |  |  |  |  |  |  | 
c1csc(-c2ccc(CNc3c4ccccc4nc4ccccc34)cc2)c1 |  |  | 5.61 |  | 38.4 | 2.47 | 4.79 |  |  |  |  |  |  | 1.46 |  | 6.29 | 1.08 | 2.11 |  | 
c1ccc2c(c1)SP1Sc3ccccc3P21 (configuration not stated) |  | > 100 |  | > 100 | > 100 |  | > 100 |  | > 100 | 73.1 | > 100 | > 100 |  |  |  |  |  |  |  | 
CC1(C)N=C(c2ccccc2)SC12S[C@@H]1CCCC[C@H]1S2 |  | > 100 | > 100 | > 100 | > 100 | > 100 | > 100 |  |  |  |  |  |  |  |  |  |  |  |  | 
